Counter-ions that a name gives are not always drawn.
What was measured:
Assay in all cases: MIC, standard broth dilution method in microtitre
Format in all cases: cell-based
[1] = tested on: E. faecalis ATCC 29212; conditions: Enterococcus faecalis, ATCC29212
Experimental: (§1) Using a standard broth dilution method in microtitre, compounds were tested for antibacterial activity. The compounds in the above examples gave minimum inhibitory concentrations (MICs) less than 1 microgram per millilitre against erythromycin-sensitive and erythromycin-resistant strains of Streptococcus pneumoniae and Streptococcus pyogenes.
(§2) In addition, the MIC (μg/mL) of test compounds against various organisms was determined including:
(§3) S. aureus Smith ATCC 13709, S. pneumoniae SP030, S. pyogenes 3565, E. faecalis ATCC 29212, H. influenzae ATCC 49247, M. catarrhalis ATCC 23246.

[2] = tested on: S. aureus Smith ATCC 13709; conditions: Staphylococcus aureus, ATCC13709
Experimental: as §1, §2, §3

[3] = tested on: S. pneumoniae SP030; conditions: Streptococcus pneumoniae
Experimental: as §1, §2, §3

[4] = tested on: S. pyogenes 3565; conditions: Streptococcus pyogenes
Experimental: as §1, §2, §3

Measured: MIC

CC[C@@H]1OC(=O)[C@H](C)[C@H](O[C@@H]2C[C@](C)(OC)[C@H](OC(=O)CCNCCSc3ccc4c(c3)c(=O)c(C(=O)O)cn4CC)[C@H](C)O2)[C@@H](C)[C@H](O[C@@H]2O[C@H](C)C[C@H](N(C)C)[C@@H]2O)[C@](C)(O)C[C@H](C)CN(C)[C@H](C)[C@@H](O)[C@]1(C)O [Example 10, 4″-O-{3-[2-(3-Carboxy-1-ethyl-4-oxo-1,4-dihydro-6-quinolinysulfanyl)ethylamino]propionyl}-azithromycin]
≤ 1 µg/mL: all assays above

CC[C@@H]1OC(=O)[C@H](C)[C@H](O[C@@H]2C[C@](C)(OC)[C@H](OC(=O)CCNCCOc3cc4c5c(c3)c(=O)c(C(=O)O)cn5CCC4)[C@H](C)O2)[C@@H](C)[C@H](O[C@@H]2O[C@H](C)C[C@H](N(C)C)[C@@H]2O)[C@](C)(O)C[C@H](C)CN(C)[C@H](C)[C@@H](O)[C@]1(C)O [Example 12, 4″-O-{3-[2-(6-Carboxy-7-oxo-2,3-dihydro-1H,7H-pyrido[3,2,1-ij]quinolin-9-yloxy)ethylamino]propionyl}-azithromycin tris trifluoroacetate salt]
≤ 1 µg/mL: all assays above

CC[C@@H]1OC(=O)[C@H](C)[C@H](O[C@@H]2C[C@](C)(OC)[C@H](OC(=O)CCNCCOc3ccc4c(c3)c(=O)c(C(=O)O)cn4CC)[C@H](C)O2)[C@@H](C)[C@H](O[C@@H]2O[C@H](C)C[C@H](N(C)C)[C@@H]2O)[C@](C)(O)C[C@H](C)CN(C)[C@H](C)[C@@H](O)[C@]1(C)O [Example 14, 4″-O-{3-[2-(3-Carboxy-1-ethyl-4-oxo-1,4-dihydro-6-quinolinyloxy)ethylamino]propionyl}-azithromycin tris trifluoroacetate salt]
≤ 1 µg/mL: all assays above

CC[C@H]1OC(=O)[C@H](C)[C@@H](O[C@H]2C[C@@](C)(OC)[C@@H](OC(=O)CCOCCOc3cc4c(=O)c(C(=O)O)cn(C5CC5)c4cc3Cl)[C@H](C)O2)[C@H](C)[C@@H](O[C@@H]2O[C@H](C)C[C@H](N(C)C)[C@H]2O)[C@](C)(O)C[C@@H](C)CN(C)[C@H](C)[C@H]2OC(=O)O[C@@]21C [Example 25, 4″-O-{3-[2-(3-Carboxy-7-chloro-1-cyclopropyl-4-oxo-1,4-dihydro-quinolin-6-yloxy)-ethoxy]-propionyl}-azithromycin11,12-carbonate]
≤ 1 µg/mL: all assays above

CC[C@H]1OC(=O)[C@H](C)[C@@H](O[C@H]2C[C@@](C)(OC)[C@@H](OC(=O)CCOCCNc3cc4c(=O)c(C(=O)O)cn(C5CC5)c4cc3Cl)[C@H](C)O2)[C@H](C)[C@@H](O[C@@H]2O[C@H](C)C[C@H](N(C)C)[C@H]2O)[C@](C)(OC)C[C@@H](C)C(=O)[C@H](C)[C@@H](O)[C@]1(C)O [Example 36, 4″-O-{3-[2-(3-Carboxy-7-chloro-1-cyclopropyl-4-oxo-1,4-dihydro-quinolin-6-ylamino)ethoxy]propionyl}-6-O-methyl-erythromycin A]
≤ 1 µg/mL: all assays above

CC[C@@H]1OC(=O)[C@H](C)[C@H](O[C@@H]2C[C@@](C)(OC)[C@H](OC(=O)CCOCCOc3cc4c(=O)c(C(=O)O)cn(C5CC5)c4cc3Cl)[C@H](C)O2)[C@@H](C)[C@H](O[C@@H]2O[C@H](C)C[C@H](N(C)C)[C@@H]2O)[C@@](C)(OC)C[C@H](C)C(=O)[C@H](C)[C@@H](O)[C@]1(C)O [Example 37, 4″-O-{3-[2-(3-Carboxy-7-chloro-1 cyclopropyl-4-oxo-1,4-dihydro-quinolin-6-yloxy)ethoxy]propionyl}-6-O-methyl-erythromycin A]
≤ 1 µg/mL: all assays above

From patent US20070213283A1, “Macrolides substituted at the 4"-position” (priority 2003, published 2007)
